Measured values: ChEMBL document CHEMBL3616461, “Design, synthesis and biological evaluation of novel pyrazolo-pyrimidinones as DPP-IV inhibitors in diabetes” (Bioorg Med Chem Lett, 2015)

Assays:
[1] = Cytotoxicity against rat macrophages by MTS/PMS assay; format: cell-based; conditions: macrophage
Dipeptidyl peptidase 4 = Dipeptidyl peptidase 4 (Homo sapiens, UniProt P27487); experiment: Inhibition of human recombinant DPP-4 using Gly-pro-p-nitroanilide as substrate assessed as formation of p-nitroaniline after 30 mins by colorimetric assay
Dipeptidyl peptidase 4, sequence (P27487 whole entry): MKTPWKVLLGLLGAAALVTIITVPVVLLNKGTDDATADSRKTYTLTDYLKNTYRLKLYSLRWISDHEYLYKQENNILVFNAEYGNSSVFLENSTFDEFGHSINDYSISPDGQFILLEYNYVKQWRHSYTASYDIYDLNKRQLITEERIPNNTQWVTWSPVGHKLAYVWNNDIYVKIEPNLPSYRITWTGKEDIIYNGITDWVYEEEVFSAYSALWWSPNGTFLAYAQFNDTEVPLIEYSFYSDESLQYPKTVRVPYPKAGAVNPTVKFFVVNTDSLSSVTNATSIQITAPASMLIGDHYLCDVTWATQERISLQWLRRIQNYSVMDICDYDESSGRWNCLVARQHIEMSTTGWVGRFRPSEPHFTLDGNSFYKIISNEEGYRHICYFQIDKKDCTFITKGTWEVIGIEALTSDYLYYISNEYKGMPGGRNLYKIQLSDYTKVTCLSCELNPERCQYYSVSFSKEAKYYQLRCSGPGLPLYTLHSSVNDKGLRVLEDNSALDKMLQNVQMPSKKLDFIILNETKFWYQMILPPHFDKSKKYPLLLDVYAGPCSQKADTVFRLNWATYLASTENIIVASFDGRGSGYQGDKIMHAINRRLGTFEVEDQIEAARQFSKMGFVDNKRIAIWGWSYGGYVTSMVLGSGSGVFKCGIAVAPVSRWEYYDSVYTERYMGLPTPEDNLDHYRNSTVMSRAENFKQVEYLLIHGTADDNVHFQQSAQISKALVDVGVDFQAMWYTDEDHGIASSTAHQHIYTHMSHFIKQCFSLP

Rattus norvegicus [2] = experiment: Antidiabetic activity in high-fat-diet and low dose streptozotocin-induced diabetic Wistar rat assessed as blood glucose level at 50 mg/kg, po after 15 days (reference value: 515 mg/dl); format: functional
Rattus norvegicus [3] = experiment: Antidiabetic activity in high-fat-diet and low dose streptozotocin-induced diabetic Wistar rat assessed as blood glucose level at 10 mg/kg, po after 15 days (reference value: 515 mg/dl); format: functional

COc1ccc(-n2ncc3c(=O)n(-c4ccc(F)cc4)c(C)nc32)cc1
Activity [1]: Non-toxic
IC50 (Dipeptidyl peptidase 4): Not Active

Cc1nc2c(cnn2-c2ccccc2)c(=O)n1-c1ccc(F)cc1F
Activity [1]: Non-toxic
IC50 (Dipeptidyl peptidase 4): Not Active

CCc1ccc(-n2c(C)nc3c(cnn3-c3ccccc3)c2=O)cc1
Activity [1]: Non-toxic
IC50 (Dipeptidyl peptidase 4): Not Active

CCOC(=O)c1sc(-n2c(C)nc3c(cnn3-c3ccccc3)c2=O)c(C(=O)OCC)c1C
Activity [1]: Non-toxic
IC50 (Dipeptidyl peptidase 4): Not Active

Cc1nc2c(cnn2-c2ccccc2)c(=O)n1-c1cccc(Cl)c1
Activity [1]: Non-toxic
IC50 (Dipeptidyl peptidase 4): Not Active

COc1ccc(-n2ncc3c(=O)n(-c4ccc(Br)cn4)c(C)nc32)cc1
Activity [1]: Non-toxic
IC50 (Dipeptidyl peptidase 4): Not Active

COc1ccc(-n2ncc3c(=O)n(-c4cc(C)ccn4)c(C)nc32)cc1
Activity [1]: Non-toxic

Cc1cc(C)c(-n2c(C)nc3c(cnn3-c3ccccc3)c2=O)c(C)c1
Activity [1]: Non-toxic
Activity (Rattus norvegicus [2]): 162.6 mg/dL

CC(=O)Nc1c(C(=O)Nc2ccc(Br)cn2)cnn1-c1ccccc1
Activity [1]: Non-toxic
IC50 (Dipeptidyl peptidase 4): Not Active

Cc1nc2c(cnn2-c2ccccc2)c(=O)n1Cc1ccccc1
Activity [1]: Non-toxic
IC50 (Dipeptidyl peptidase 4): Not Active

Cc1nc2c(cnn2-c2ccccc2)c(=O)n1-c1ccc(F)cc1
Activity [1]: Non-toxic
IC50 (Dipeptidyl peptidase 4): Not Active

CC(=O)Nc1c(C(=O)Nc2ccccn2)cnn1-c1ccccc1
Activity [1]: Non-toxic
IC50 (Dipeptidyl peptidase 4): Not Active

COc1ccc(-n2ncc3c(=O)n(-c4ccc([N+](=O)[O-])cn4)c(C)nc32)cc1
Activity [1]: Non-toxic
IC50 (Dipeptidyl peptidase 4): Not Active

Cc1nc2c(cnn2-c2ccccc2)c(=O)n1-c1ccc([N+](=O)[O-])cn1
Activity [1]: Non-toxic
IC50 (Dipeptidyl peptidase 4): Not Active

COc1ccc(-n2ncc3c(=O)n(-c4nc(-c5ccc(Cl)cc5)cs4)c(C)nc32)cc1
Activity [1]: Non-toxic

Cc1nc2c(cnn2-c2ccccc2)c(=O)n1-c1ccc(Br)cn1
Activity [1]: Non-toxic

O=C(Nc1ccc(F)cc1)c1cnn(-c2ccccc2)c1NC(=O)C(F)(F)F
Activity [1]: Non-toxic
Activity (Rattus norvegicus [2]): 193.2 mg/dL

Cc1nc2c(cnn2-c2ccccc2)c(=O)n1-c1ncccn1
Activity [1]: Non-toxic

Cc1ccnc(-n2c(C)nc3c(cnn3-c3ccccc3)c2=O)c1
Activity [1]: Non-toxic
Activity (Rattus norvegicus [2]): 198.5 mg/dL

COc1ccc(-n2ncc3c(=O)n(-c4ccccn4)c(C)nc32)cc1
Activity [1]: Non-toxic
IC50 (Dipeptidyl peptidase 4): Not Active

CCOC(=O)c1sc(-n2c(C)nc3c(cnn3-c3ccc(OC)cc3)c2=O)c(C(=O)OCC)c1C
Activity [1]: Non-toxic
IC50 (Dipeptidyl peptidase 4): Not Active

Cc1nc2c(cnn2-c2ccccc2)c(=O)n1-c1ccccc1
Activity [1]: Non-toxic
IC50 (Dipeptidyl peptidase 4): Not Active

N[C@@H](CC(=O)N1CCn2c(nnc2C(F)(F)F)C1)Cc1cc(F)c(F)cc1F [SITAGLIPTIN]
Activity [1]: Non-toxic
Activity (Rattus norvegicus [3]): 136.4 mg/dL

CC(=O)Nc1c(C(=O)Nc2nc(-c3ccc(Cl)cc3)cs2)cnn1-c1ccccc1
Activity [1]: Non-toxic
IC50 (Dipeptidyl peptidase 4): Not Active

O=C(Nc1ccc(Cl)cc1)c1cnn(-c2ccccc2)c1NC(=O)C(F)(F)F
Activity [1]: Non-toxic
IC50 (Dipeptidyl peptidase 4): Not Active

Cc1nc2c(cnn2-c2ccccc2)c(=O)n1-c1ccccn1
Activity [1]: Non-toxic
